Experimental data from publication PMC6777825, “Differential scanning fluorimetric analysis of the amino-acid binding to taste receptor using a model receptor protein, the ligand-binding domain of fish T1r2a/T1r3” (PLoS ONE, 2019).
Like-named read-outs stand apart in the source and are kept apart here.

Legend:
[1] = biological target: medaka T1r2a/T1r3LBD (Oryzias latipes, UniProt A0A173M094+A0A173M0G2); assay: Differential scanning fluorimetry (DSF) thermal shift ligand-binding assay; design: species or system O. latipes; conditions: for ΔTm: average ± s.e.m., n = 4; for effect on thermal stability / Tm shift of T1r2a/T1r3LBD (in words): DSF, 0.1-10 mM amino acid; for Tm shift (in words): adding up to 10 mM
Sequence of medaka T1r2a/T1r3LBD (A0A173M094 entry or part of it): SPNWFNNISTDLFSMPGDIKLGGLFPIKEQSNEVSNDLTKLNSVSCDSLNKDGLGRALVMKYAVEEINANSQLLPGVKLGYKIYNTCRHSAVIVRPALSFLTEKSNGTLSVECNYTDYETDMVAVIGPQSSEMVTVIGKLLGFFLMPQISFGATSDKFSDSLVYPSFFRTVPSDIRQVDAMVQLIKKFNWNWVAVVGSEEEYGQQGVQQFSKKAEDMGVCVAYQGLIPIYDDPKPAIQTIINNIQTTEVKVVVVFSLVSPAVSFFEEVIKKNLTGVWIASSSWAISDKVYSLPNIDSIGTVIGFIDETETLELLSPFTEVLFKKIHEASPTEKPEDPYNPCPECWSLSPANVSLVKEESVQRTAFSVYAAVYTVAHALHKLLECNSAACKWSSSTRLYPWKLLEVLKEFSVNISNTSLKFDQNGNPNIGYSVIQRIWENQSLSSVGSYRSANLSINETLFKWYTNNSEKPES
Sequence of medaka T1r2a/T1r3LBD (A0A173M0G2 entry or part of it): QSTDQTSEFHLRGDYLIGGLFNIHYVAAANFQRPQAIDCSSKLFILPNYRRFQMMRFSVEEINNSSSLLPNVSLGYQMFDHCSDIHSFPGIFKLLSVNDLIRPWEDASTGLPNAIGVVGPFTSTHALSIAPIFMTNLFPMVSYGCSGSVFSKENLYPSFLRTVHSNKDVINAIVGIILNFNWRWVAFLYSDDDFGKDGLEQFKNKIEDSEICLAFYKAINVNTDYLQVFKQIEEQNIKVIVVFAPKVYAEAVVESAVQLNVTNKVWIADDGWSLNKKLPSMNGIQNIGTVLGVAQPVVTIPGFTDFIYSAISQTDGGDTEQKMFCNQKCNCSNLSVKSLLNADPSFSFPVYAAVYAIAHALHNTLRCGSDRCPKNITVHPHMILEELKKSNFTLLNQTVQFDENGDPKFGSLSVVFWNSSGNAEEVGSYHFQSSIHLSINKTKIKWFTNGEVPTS
Procedure: The protein sample was prepared as described previously. Briefly, Drosophila S2 cells (Invitrogen) stably expressing C-terminal FLAG-tagged T1r2aLBD and T1r3LBD [11, 21] were cultured in ExpressFiveSFM (LifeTechnologies) for five days at 27 °C. The T1r2a/T1r3-LBD protein was purified from the culture medium by the use of ANTI-FLAG M2 Affinity Gel (SIGMA). The purified protein was dialyzed against the assay buffer (20 mM Tris-HCl, 300 mM NaCl, 2 mM CaCl2, pH 8.0).
The protein sample (~1 μg) was mixed with Protein Thermal Shift Dye (Applied Biosystems) and 10~10,000 μM concentration of each amino acid in 20 μL of assay buffer and loaded to a MicroAmpR Fast Optical 48-Well Reaction Plate (Applied Biosystems). Specifically, to minimize the changes of the chemical and optical condition, the amino acid solutions were prepared by the exact same buffer used for the final dialysis of the protein, followed by the re-adjustment of the pH to ~ 8.0 by addition of either NaOH or HCl, and mixed with the protein diluted with the same buffer.
Fluorescent intensity was measured by the StepOne Real-Time PCR System (Applied Biosystems). The temperature was raised from 25 °C to 99 °C with a velocity of 0.022 °C/sec. The reporter and quencher for detection were set as “ROX” and “none”, respectively. Apparent melting transition temperature (Tm) was determined by the use of the maximum of the derivatives of the melt curve (dFluorescence/dT) by Protein Thermal Shift Software version 1.3 (Applied Biosystems).
The apparent dissociation constant (Kd-app) derived from the DSF results was estimated based on Eq 1 proposed by Schellman, assuming that the unfolding of the protein is reversible: ΔTm=Tm−T0=TmT0R/ΔH^0ln(1+[L]/Kd-app) (1) where [L] is the ligand concentration; Tm and T0 are the apparent melting transition temperatures in the presence and absence of the ligand; R is the gas constant; ΔH^0 is the enthalpy of unfolding at T0, assuming that there are no significant variations under the tested conditions. If the melt curves show biphasic profiles, the second (or the right side) Tm values were adopted for calculation, as described in the Results section.
For multiple regression analyses shown in Fig 2B, the apparent Tm values determined at different ligand concentrations were fitted to Eq 1 by using KaleidaGraph (Synergy Software), assuming that the change of the dissociation constant accompanied by the Tm shift is negligible.

[2] = biological target: T1r2a/T1r3 full-length receptor (Oryzias latipes, UniProt A0A173M094+A0A173M0G2); assay: Ca2+-flux receptor response assay in Flip-In 293 cells stably expressing full-length T1r2a, T1r3 and Gα16-gust44; assay type: cell-based, O. latipes; conditions: for ΔRFU: average ± s.e.m.
Sequence of T1r2a/T1r3 full-length receptor (A0A173M0G2 entry or part of it): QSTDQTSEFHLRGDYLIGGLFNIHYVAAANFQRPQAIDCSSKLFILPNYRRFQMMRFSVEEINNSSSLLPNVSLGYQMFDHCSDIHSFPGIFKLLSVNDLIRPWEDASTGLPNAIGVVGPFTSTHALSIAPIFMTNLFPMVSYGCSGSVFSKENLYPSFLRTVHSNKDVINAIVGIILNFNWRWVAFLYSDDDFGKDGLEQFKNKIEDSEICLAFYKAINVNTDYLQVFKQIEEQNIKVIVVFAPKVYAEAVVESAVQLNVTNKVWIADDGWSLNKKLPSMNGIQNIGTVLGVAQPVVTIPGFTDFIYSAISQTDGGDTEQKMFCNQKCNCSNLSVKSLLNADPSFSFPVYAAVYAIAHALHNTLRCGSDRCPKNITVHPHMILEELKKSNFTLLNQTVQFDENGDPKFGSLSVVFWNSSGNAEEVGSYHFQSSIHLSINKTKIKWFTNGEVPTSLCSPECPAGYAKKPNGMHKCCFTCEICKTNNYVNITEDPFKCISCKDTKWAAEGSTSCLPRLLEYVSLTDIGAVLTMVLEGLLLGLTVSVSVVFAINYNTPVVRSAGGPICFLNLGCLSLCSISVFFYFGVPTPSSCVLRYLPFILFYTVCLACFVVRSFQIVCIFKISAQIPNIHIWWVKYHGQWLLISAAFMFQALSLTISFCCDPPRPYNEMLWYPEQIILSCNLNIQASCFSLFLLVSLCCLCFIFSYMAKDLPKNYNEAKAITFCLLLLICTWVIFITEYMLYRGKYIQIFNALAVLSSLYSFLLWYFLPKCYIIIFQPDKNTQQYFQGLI
Sequence of T1r2a/T1r3 full-length receptor (A0A173M094 entry or part of it): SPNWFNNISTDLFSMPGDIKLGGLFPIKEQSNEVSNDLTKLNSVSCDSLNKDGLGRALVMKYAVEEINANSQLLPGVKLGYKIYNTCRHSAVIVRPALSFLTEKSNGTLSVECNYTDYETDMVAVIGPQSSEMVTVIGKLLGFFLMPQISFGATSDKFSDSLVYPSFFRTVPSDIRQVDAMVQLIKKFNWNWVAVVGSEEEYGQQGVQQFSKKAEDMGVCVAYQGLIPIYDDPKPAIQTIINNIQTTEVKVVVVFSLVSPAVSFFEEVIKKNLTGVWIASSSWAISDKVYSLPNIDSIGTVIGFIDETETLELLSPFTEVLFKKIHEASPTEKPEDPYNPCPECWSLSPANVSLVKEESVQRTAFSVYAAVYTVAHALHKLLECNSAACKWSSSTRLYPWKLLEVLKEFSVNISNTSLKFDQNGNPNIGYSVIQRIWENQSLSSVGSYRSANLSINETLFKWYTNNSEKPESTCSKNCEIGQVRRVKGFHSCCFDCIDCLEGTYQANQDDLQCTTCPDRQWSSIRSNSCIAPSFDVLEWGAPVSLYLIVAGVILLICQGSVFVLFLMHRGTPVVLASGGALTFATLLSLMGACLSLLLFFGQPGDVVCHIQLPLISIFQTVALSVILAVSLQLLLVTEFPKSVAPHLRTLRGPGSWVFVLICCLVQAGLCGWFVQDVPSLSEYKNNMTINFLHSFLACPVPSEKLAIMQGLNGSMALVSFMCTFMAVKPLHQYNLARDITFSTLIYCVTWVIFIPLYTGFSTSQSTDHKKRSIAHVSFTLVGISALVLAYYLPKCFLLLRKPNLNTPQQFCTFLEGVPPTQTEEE
Procedure: The Ca^2+-flux assay was performed using Flip-In 293 cell line (Life Technologies) stably expressing full-length T1r2a, T1r3, and Gα16-gust44 as described previously. The response stimulated by either 5 or 10 mM amino acid was represented asΔRFU (delta relative fluorescence unit) defined as the maximum fluorescence intensity induced by the addition of the amino acid, subtracted with that of an assay buffer in the absence of amino acid.

[3] = cited from earlier work; for Hydropathy Index: hydrophobicity/hydrophilicity, ref Kyte & Doolittle, J. Mol. Biol., 157, 105 (1982); for pI: ref Handbook of Chemistry and Physics, CRC Press; for logKd_CW (polarity): transfer from cyclohexane to an aqueous solution, ref Radzicka & Wolfenden, Biochemistry, 27, 1664 (1988); for Es'c (steric effects) / πα (hydrophobicity) / HP (hydration potential): α-substituent group; for Es'c (steric effects) / πα (hydrophobicity): ref Akamatsu et al., J. Pharm. Sci., 83, 1026 (1994); for HP (hydration potential): ref Wolfenden et al., Biochemistry, 20, 849 (1981)
[4] = 5 mM amino acid, n = 6 (n = 12 for L-glutamine)
[5] = estimated from ΔRFU at 10 mM by Hill equation, ΔRFUmax 104.3, read-out: EC50-est
[6] = from response at 10 mM, log 1/EC50-est, read-out: pEC50-est (converted)
[7] = from ΔTm at 0.1 mM via Eq 1, T0 326.1 K, ΔH0 72.1 kcal mol-1, read-out: Kd-app estimated at a single ligand concentration
[8] = from ΔTm at 1 mM via Eq 1, T0 326.1 K, ΔH0 72.1 kcal mol-1, read-out: Kd-app estimated at a single ligand concentration
[9] = from ΔTm at 10 mM via Eq 1, T0 326.1 K, ΔH0 72.1 kcal mol-1, read-out: Kd-app estimated at a single ligand concentration
[10] = log 1/Kd-app, converted from S1 Table values (10 mM; L-Ala 1 mM, L-Gln 0.1 mM)
[11] = from response at 10 mM, log 1/EC50-est

SMILES	ΔTm ([1]; 0.1 mM amino acid) [K]	ΔTm ([1]; 1 mM amino acid) [K]	ΔTm ([1]; 10 mM amino acid) [K]	ΔRFU [2, 4]	ΔRFU ([2]; 10 mM amino acid, n = 6)	EC50 [2, 5] [mM]	potency estimated from few doses [1, 7] [mM]	potency estimated from few doses [1, 8] [mM]	potency estimated from few doses [1, 9] [mM]	pKd-app [1, 10]	pEC50-est [2, 11]	Hydropathy Index [3]	pI [3]	logKd_CW (polarity) [3]	Es'c (steric effects) [3]	πα (hydrophobicity) [3]	HP (hydration potential) [3]	also measured
C[C@@H](N)C(=O)O [D-Ala, D-alanine]	0.15 ± 0.05	-0.33 ± 0.07	-1.03 ± 0.09	7.08 ± 2.16	23.6 ± 8.83	34.2	–	–	–	–	–	–	–	–	–	–	–	effect on thermal stability / Tm shift of T1r2a/T1r3LBD (in words) [1]: thermal destabilization; Tm shift (in words) ([1]; listed as D-alanine): did not induce a significant Tm shift; Tm shift (in words) ([1]; listed as d-alanine): no substantial Tm shifts; potency estimated from few doses ([1]; read-out: Kd-app estimated at a single ligand concentration, from ΔTm at 0.1 mM via Eq 1, T0 326.1 K, ΔH0 72.1 kcal mol-1): 1.95 mM; full-length receptor response (in words) ([2]; 5 or 10 mM, compared to enantiomer L-alanine): significantly weak responses; EC50 ([2]; estimated from ΔRFU at 5 mM by Hill equation, ΔRFUmax 104.3, read-out: EC50-est): 68.7 mM; EC50 ([2]; from response at 5 mM, log 1/EC50-est, read-out: pEC50-est (converted)): 69.2 mM; EC50 [2, 6]: 33.9 mM
NC(=O)C[C@H](N)C(=O)O [L-Asn]	0.12 ± 0.07	0.38 ± 0.06	4.36 ± 0.99	0.460 ± 2.58	15.7 ± 6.13	56.3	2.4	7.33	3	2.52	1.25	-3.5	5.41	4.88	-0.98	-0.52	-9.68	–
N[C@@H](CC(=O)O)C(=O)O [L-Asp, L-aspartate]	-0.06 ± 0.17	-1.71 ± 0.19	0.74 ± 0.05	-4.00 ± 1.10	-9.43 ± 1.83	–	–	–	34.9	–	–	-3.5	2.77	3.27	-0.98	0.05	-10.95	effect on thermal stability / Tm shift of T1r2a/T1r3LBD (in words) [1]: destabilized the protein; Kd ([1]; log 1/Kd-app, converted from S1 Table values (10 mM; L-Ala 1 mM, L-Gln 0.1 mM), read-out: pKd-app (converted)): 34.7 mM
N[C@@H](Cc1c[nH]cn1)C(=O)O [L-His]	-3.75 ± 0.33	1.21 ± 0.02	5.81 ± 0.07	4.72 ± 2.39	14.4 ± 6.62	62.4	–	1.96	1.67	2.78	1.20	-3.2	7.59	3.34	-0.86	0.17	-10.27	–
CC[C@H](C)[C@H](N)C(=O)O [L-Ile]	-0.50 ± 0.11	-0.57 ± 0.07	2.89 ± 2.40	2.90 ± 2.82	30.5 ± 6.26	24.2	–	–	6.04	2.22	1.62	4.5	6.02	-3.62	-1.81	1.43	2.15	–
CC(C)C[C@H](N)C(=O)O [L-Leu]	0.08 ± 0.09	-0.94 ± 0.07	6.91 ± 0.05	0.933 ± 1.91	27.8 ± 5.89	27.5	3.49	–	1.11	2.96	1.56	–	–	-3.62	-1.44	1.52	2.28	–
NCCCC[C@H](N)C(=O)O [L-Lys, L-lysine]	-0.04 ± 0.03	-0.40 ± 0.17	-3.83 ± 0.30	8.68 ± 4.29	18.5 ± 8.01	–	–	–	–	–	–	–	–	–	–	–	–	effect on thermal stability / Tm shift of T1r2a/T1r3LBD (in words) ([1]; listed as L-lysine): thermal destabilization; effect on thermal stability / Tm shift of T1r2a/T1r3LBD (in words) ([1]; listed as lysine): destabilized the protein; EC50 ([2]; EC50-est, estimated from ΔRFU at 5 mM by Hill equation, ΔRFUmax 104.3): 55.1 mM; EC50 ([2]; EC50-est, estimated from ΔRFU at 10 mM by Hill equation, ΔRFUmax 104.3): 46.5 mM; EC50 ([2]; pEC50-est, from response at 5 mM, log 1/EC50-est): 55 mM; EC50 ([2]; pEC50-est, from response at 10 mM, log 1/EC50-est): 46.8 mM
CSCC[C@H](N)C(=O)O [L-Met]	0.45 ± 0.11	6.17 ± 0.05	8.85 ± 0.06	-2.52 ± 1.72	21.8 ± 7.73	37.9	0.604	0.146	0.562	3.25	1.42	1.9	5.74	-1.73	-1.03	0.99	-1.48	–
N[C@@H](Cc1ccccc1)C(=O)O [L-Phe]	0.30 ± 0.04	1.04 ± 0.12	3.53 ± 0.05	2.08 ± 2.32	22.4 ± 5.78	36.5	0.918	2.37	4.37	2.36	1.44	2.8	5.48	-2.19	-0.9	1.78	-0.76	–
O=C(O)[C@@H]1CCCN1 [L-Pro, L-proline]	-0.15 ± 0.04	0.04 ± 0.07	7.24 ± 0.02	2.90 ± 1.93	45.1 ± 7.06	13.2	–	–	–	–	–	–	–	–	–	–	–	potency estimated from few doses ([1]; read-out: Kd-app estimated at a single ligand concentration, from ΔTm at 1 mM via Eq 1, T0 326.1 K, ΔH0 72.1 kcal mol-1): 79.9 mM; potency estimated from few doses ([1]; read-out: Kd-app estimated at a single ligand concentration, from ΔTm at 10 mM via Eq 1, T0 326.1 K, ΔH0 72.1 kcal mol-1): 0.985 mM; EC50 [2, 6]: 13.2 mM
